Measurements: ChEMBL document CHEMBL1909046, “DrugMatrix in vitro pharmacology data”

Experiments:
[1] = target: Sodium-dependent dopamine transporter (Homo sapiens, UniProt Q01959); assay: DRUGMATRIX: Dopamine Transporter radioligand binding (ligand: [125I] RTI-55); format: cell membranes, CHO-K1, Membrane; conditions: Not Active = under 50% inhibition at 10 µM
[2] = DRUGMATRIX: Phorbol Ester radioligand binding (ligand: [3H] PDBu); format: cell membranes, Mus musculus, ICR, Brain, Membrane; conditions: Not Active = under 50% inhibition at 10 µM
[3] = DRUGMATRIX: Potassium Channel [KATP] radioligand binding (ligand: [3H] Glyburide); format: cell membranes, Membrane; conditions: hit-t15; Not Active = under 50% inhibition at 10 µM
[4] = DRUGMATRIX: Calcium Channel Type L, Benzothiazepine radioligand binding (ligand: [3H] Diltiazem); format: cell membranes, Rattus norvegicus, Wistar, Brain, Membrane; conditions: Not Active = under 50% inhibition at 10 µM
[5] = target: cGMP-specific 3',5'-cyclic phosphodiesterase (Homo sapiens, UniProt O76074); assay: DRUGMATRIX: Phosphodiesterase PDE5 enzyme inhibition (substrate: [3H]cGMP + cGMP); format: tissue-based, Platelet; conditions: platelet; Not Active = under 50% inhibition at 10 µM
[6] = target: T1, Alpha-1A adrenergic receptor (Rattus norvegicus, UniProt P43140); assay: DRUGMATRIX: Alpha-1A adrenergic receptor radioligand binding (ligand: prazosin); format: cell membranes, Wistar, Submaxillary gland, Membrane; conditions: Not Active = under 50% inhibition at 10 µM
T1 sequence (P43140 whole entry): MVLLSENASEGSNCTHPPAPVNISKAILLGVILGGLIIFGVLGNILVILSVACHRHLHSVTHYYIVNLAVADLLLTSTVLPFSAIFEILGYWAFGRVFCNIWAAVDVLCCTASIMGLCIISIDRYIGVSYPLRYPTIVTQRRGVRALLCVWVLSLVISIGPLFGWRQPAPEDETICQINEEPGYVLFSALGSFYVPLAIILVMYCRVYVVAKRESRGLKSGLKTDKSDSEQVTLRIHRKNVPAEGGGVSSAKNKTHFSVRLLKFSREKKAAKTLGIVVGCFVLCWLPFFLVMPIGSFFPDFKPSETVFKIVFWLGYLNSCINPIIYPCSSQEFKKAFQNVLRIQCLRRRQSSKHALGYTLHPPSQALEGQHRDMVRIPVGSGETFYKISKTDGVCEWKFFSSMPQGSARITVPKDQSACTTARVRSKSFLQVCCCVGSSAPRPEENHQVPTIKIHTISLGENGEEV

Sodium-dependent dopamine transporter, sequence (Q01959 whole entry): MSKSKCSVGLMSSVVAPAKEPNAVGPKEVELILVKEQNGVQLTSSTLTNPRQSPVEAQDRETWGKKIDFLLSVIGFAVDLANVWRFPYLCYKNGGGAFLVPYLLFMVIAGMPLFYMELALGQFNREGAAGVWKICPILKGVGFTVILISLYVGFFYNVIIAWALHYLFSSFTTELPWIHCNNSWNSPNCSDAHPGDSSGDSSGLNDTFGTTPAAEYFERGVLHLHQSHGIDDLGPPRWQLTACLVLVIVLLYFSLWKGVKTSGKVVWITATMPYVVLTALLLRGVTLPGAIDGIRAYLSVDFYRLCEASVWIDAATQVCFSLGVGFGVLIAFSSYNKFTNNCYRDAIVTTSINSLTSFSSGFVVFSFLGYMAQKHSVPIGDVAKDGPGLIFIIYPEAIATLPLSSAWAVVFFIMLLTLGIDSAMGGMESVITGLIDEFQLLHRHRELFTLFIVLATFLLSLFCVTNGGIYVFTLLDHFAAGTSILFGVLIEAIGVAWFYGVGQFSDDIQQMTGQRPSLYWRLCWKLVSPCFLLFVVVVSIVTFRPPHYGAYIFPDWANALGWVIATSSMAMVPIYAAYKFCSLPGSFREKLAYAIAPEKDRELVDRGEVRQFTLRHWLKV

Compound: CN(Cc1cc(Br)cc(Br)c1N)C1CCCCC1 [BROMHEXINE]
- IC50 ([1]; cho-k1): Not Active
- IC50 [2]: Not Active
- Ki [2]: Not Active
- IC50 [3]: Not Active
- Ki [3]: Not Active
- IC50 [4]: Not Active
- Ki [4]: Not Active
- IC50 [5]: Not Active
- IC50 [6]: Not Active

Compound: CC(C)Cc1ccc([C@H](C)C(=O)O)cc1 [DEXIBUPROFEN]
- IC50 ([1]; cho-k1): Not Active
- IC50 [2]: Not Active
- Ki [2]: Not Active
- IC50 [3]: Not Active
- Ki [3]: Not Active
- IC50 [4]: Not Active
- Ki [4]: Not Active
- IC50 [5]: Not Active
- IC50 [6]: Not Active

Compound: CC(C)Cn1cnc2c(N)nc3ccccc3c21 [IMIQUIMOD]
- IC50 ([1]; cho-k1): Not Active
- IC50 [2]: Not Active
- Ki [2]: Not Active
- IC50 [3]: Not Active
- Ki [3]: Not Active
- IC50 [4]: Not Active
- Ki [4]: Not Active
- IC50 [5]: Not Active
- IC50 [6]: Not Active

Compound: CC(C)(C#N)c1cc(Cn2cncn2)cc(C(C)(C)C#N)c1 [ANASTROZOLE]
- IC50 ([1]; cho-k1): Not Active
- IC50 [2]: Not Active
- Ki [2]: Not Active
- IC50 [3]: Not Active
- Ki [3]: Not Active
- IC50 [4]: Not Active
- Ki [4]: Not Active
- IC50 [5]: Not Active
- IC50 [6]: Not Active

Compound: POVIDONE
- IC50 ([1]; cho-k1): Not Active
- Ki ([1]; cho-k1): Not Active
- IC50 [2]: Not Active
- Ki [2]: Not Active
- IC50 [3]: Not Active
- Ki [3]: Not Active
- IC50 [4]: Not Active
- Ki [4]: Not Active
- IC50 [5]: Not Active
- Ki [5]: Not Active
- IC50 [6]: Not Active
- Ki [6]: Not Active

Compound: COc1ccccc1OCCNCC(O)COc1cccc2[nH]c3ccccc3c12 (centres undefined) [CARVEDILOL]
- IC50 ([1]; read-out: IC50): 845 nM
- Ki ([1]; read-out: Ki): 671 nM
- IC50 [2]: Not Active
- Ki [2]: Not Active
- IC50 [3]: Not Active
- Ki [3]: Not Active
- IC50 ([4]; read-out: IC50): 621 nM
- Ki ([4]; read-out: Ki): 552 nM
- IC50 [5]: Not Active

Compound: Nc1ccc(Cc2ccc(N)cc2)cc1
- IC50 ([1]; cho-k1): Not Active
- IC50 [2]: Not Active
- Ki [2]: Not Active
- IC50 [3]: Not Active
- Ki [3]: Not Active
- IC50 [4]: Not Active
- Ki [4]: Not Active
- IC50 [5]: Not Active
- IC50 [6]: Not Active

Compound: CARBOXYMETHYLCELLULOSE
- IC50 ([1]; cho-k1): Not Active
- Ki ([1]; cho-k1): Not Active
- IC50 [2]: Not Active
- Ki [2]: Not Active
- IC50 [3]: Not Active
- Ki [3]: Not Active
- IC50 [4]: Not Active
- Ki [4]: Not Active
- IC50 [5]: Not Active
- Ki [5]: Not Active
- IC50 [6]: Not Active
- Ki [6]: Not Active

Compound: c1ccc2sc(SSc3nc4ccccc4s3)nc2c1 [BENZOTHIAZYL DISULFIDE]
- IC50 ([1]; read-out: IC50): 245 nM
- Ki ([1]; read-out: Ki): 194 nM
- IC50 [2]: Not Active
- Ki [2]: Not Active
- IC50 [3]: Not Active
- Ki [3]: Not Active
- IC50 [4]: Not Active
- Ki [4]: Not Active
- IC50 [5]: Not Active
- IC50 [6]: Not Active

Compound: O=C1c2ccccc2C(=O)C1c1ccccc1 [PHENINDIONE]
- IC50 ([1]; cho-k1): Not Active
- IC50 [2]: Not Active
- Ki [2]: Not Active
- IC50 [3]: Not Active
- Ki [3]: Not Active
- IC50 [4]: Not Active
- Ki [4]: Not Active
- IC50 [5]: Not Active
- IC50 [6]: Not Active

Compound: Nc1ccc(C(=O)O)c(O)c1 [AMINOSALICYLIC ACID]
- IC50 ([1]; cho-k1): Not Active
- IC50 [2]: Not Active
- Ki [2]: Not Active
- IC50 [3]: Not Active
- Ki [3]: Not Active
- IC50 [4]: Not Active
- Ki [4]: Not Active
- IC50 [5]: Not Active
- IC50 [6]: Not Active

Compound: Cc1cc(C(C)(C)C)c(O)c(C)c1CC1=NCCN1 [OXYMETAZOLINE]
- IC50 ([1]; cho-k1): Not Active
- IC50 [2]: Not Active
- Ki [2]: Not Active
- IC50 [3]: Not Active
- Ki [3]: Not Active
- IC50 [4]: Not Active
- Ki [4]: Not Active
- IC50 [5]: Not Active

Compound: CC(CN1c2ccccc2Sc2ccccc21)N(C)C (centres undefined) [PROMETHAZINE]
- IC50 ([1]; cho-k1): Not Active
- IC50 [2]: Not Active
- Ki [2]: Not Active
- IC50 [3]: Not Active
- Ki [3]: Not Active
- IC50 ([4]; read-out: IC50): 2780 nM
- Ki ([4]; read-out: Ki): 2470 nM
- IC50 [5]: Not Active

Compound: NC(N)=Nc1nc(CSCCC(N)=NS(N)(=O)=O)cs1 [FAMOTIDINE]
- IC50 ([1]; cho-k1): Not Active
- IC50 [2]: Not Active
- Ki [2]: Not Active
- IC50 [4]: Not Active
- Ki [4]: Not Active
- IC50 [5]: Not Active
- IC50 [6]: Not Active
